SMILES strings stand for the structures. Active and inactive are the calls of the source.

In experiment [1] the target is Protein disulfide-isomerase (Homo sapiens, UniProt P07237). In words: PDI inhibitors, insulin aggregation turbidity, dose response, biochemical, absorbance, cherry-picked samples (AID 602350). It is filed as functional.
Experiment [2] concerns the target SRSF protein kinase 1 (Homo sapiens, UniProt Q96SB4). The format is functional.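 Note: measured as one member of a kinome-wide kinase profiling panel.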
For experiment [3], the target named is Casein kinase I isoform delta (Homo sapiens, UniProt P48730). It is filed as functional.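 Note: measured as one member (CSNK1D) of a kinome panel.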
The target in experiment [4] is Homeodomain-interacting protein kinase 4 (Homo sapiens, UniProt Q8NE63). The format is functional.
The target of experiment [5] is Dual specificity protein kinase CLK4 (Homo sapiens, UniProt Q9HAZ1). The format is functional.
Chain of Dual specificity protein kinase CLK4 (Q9HAZ1 whole entry): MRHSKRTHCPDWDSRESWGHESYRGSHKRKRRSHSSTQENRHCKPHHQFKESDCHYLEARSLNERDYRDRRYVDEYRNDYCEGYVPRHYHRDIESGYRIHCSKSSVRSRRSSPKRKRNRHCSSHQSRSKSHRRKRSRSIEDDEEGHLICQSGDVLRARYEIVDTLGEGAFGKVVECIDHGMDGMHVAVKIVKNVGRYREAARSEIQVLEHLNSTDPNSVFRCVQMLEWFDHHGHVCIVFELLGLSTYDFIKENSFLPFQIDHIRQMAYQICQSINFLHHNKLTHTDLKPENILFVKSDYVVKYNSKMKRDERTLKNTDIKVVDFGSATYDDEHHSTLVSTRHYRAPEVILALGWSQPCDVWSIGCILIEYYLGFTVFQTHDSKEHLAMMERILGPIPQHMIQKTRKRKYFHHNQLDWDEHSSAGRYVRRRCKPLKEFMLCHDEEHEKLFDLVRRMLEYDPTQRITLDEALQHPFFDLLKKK
Experiment [6] addresses Dual specificity tyrosine-phosphorylation-regulated kinase 1A (Homo sapiens, UniProt Q13627). The format is functional.
In experiment [7] the target is Dual specificity tyrosine-phosphorylation-regulated kinase 1A (Rattus norvegicus, UniProt Q63470). The format is biochemical, Homo sapiens.
For experiment [8], the target named is Serine/threonine-protein kinase pim-1 (Homo sapiens, UniProt P11309). It is filed as functional.
Chain of Serine/threonine-protein kinase pim-1 (P11309 whole entry): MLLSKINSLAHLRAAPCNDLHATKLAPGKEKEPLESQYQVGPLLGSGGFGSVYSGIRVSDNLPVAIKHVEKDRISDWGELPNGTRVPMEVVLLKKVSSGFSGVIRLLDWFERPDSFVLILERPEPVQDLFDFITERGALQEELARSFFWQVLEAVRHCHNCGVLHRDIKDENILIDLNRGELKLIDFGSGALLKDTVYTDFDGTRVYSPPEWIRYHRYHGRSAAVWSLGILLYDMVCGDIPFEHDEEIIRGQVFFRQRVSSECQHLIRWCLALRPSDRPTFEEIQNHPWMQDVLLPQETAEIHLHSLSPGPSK
Experiment [9] concerns the target Aurora kinase A (Homo sapiens, UniProt O14965). It is filed as functional.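 Note: value from the Navigating the Kinome kinase panel profiling, panel entry STK6.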
In experiment [10] the target is Inhibitor of nuclear factor kappa-B kinase subunit beta (Homo sapiens, UniProt O14920). It is filed as functional.
Chain of Inhibitor of nuclear factor kappa-B kinase subunit beta (O14920 whole entry): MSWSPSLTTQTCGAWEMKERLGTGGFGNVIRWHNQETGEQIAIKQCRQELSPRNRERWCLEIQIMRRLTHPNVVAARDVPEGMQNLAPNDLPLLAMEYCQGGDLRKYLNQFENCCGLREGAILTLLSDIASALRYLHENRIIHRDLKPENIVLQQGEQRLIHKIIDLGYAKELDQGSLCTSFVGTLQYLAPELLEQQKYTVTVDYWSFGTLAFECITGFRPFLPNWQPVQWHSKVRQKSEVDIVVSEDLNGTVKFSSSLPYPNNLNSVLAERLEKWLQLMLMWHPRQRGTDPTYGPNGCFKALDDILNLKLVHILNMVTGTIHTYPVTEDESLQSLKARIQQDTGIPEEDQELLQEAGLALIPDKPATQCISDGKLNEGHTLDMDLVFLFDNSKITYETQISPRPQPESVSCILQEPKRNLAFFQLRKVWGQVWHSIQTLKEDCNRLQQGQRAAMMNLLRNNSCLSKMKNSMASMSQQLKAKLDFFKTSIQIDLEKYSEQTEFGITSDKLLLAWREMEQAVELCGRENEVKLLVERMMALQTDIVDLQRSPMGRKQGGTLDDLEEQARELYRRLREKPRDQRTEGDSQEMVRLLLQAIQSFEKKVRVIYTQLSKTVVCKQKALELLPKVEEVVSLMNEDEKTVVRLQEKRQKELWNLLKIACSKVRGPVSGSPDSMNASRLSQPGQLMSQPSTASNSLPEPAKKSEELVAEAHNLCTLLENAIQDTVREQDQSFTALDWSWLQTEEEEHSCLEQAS
The target in experiment [11] is Cyclin-dependent kinase 2 (Homo sapiens, UniProt P24941). It is filed as functional.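 Note: CDK2 measured as one member of a broad kinome profiling panel.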
The target of experiment [12] is Cell division cycle 7-related protein kinase (Homo sapiens, UniProt O00311). The format is functional.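 Note: value obtained from a kinome-wide kinase panel.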
Experiment [13] addresses Homeodomain-interacting protein kinase 2 (Homo sapiens, UniProt Q9H2X6). The format is functional.
Experiment [14] has as its target MAP kinase-interacting serine/threonine-protein kinase 2 (Homo sapiens, UniProt Q9HBH9). It is filed as functional.
Experiment [15] has as its target Interleukin-1 receptor-associated kinase 4 (Homo sapiens, UniProt Q9NWZ3). The format is functional.
Experiment [16] addresses Glycogen synthase kinase-3 beta (Homo sapiens, UniProt P49841). It is filed as functional.
The target in experiment [17] is cAMP-dependent protein kinase catalytic subunit alpha (Homo sapiens, UniProt P17612). It is filed as functional.
For experiment [18], the target named is Mitogen-activated protein kinase kinase kinase kinase 4 (Homo sapiens, UniProt O95819). It is filed as functional.
Experiment [19] deals with CHO-K1. Description: Counterscreen for antagonists of the orexin 1 receptor (OX1R; HCRTR1): Homogeneous time resolved fluorescence (HTRF)-based cell-based dose response assay to identify antagonists of the parental CHO-K1 cell line. [Related pubchem assays (depositor defined):AID434989, AID435008, AID463079, AID485270, AID492963, AID492964, AID492965, AID493232, AID504699, AID504701]. It is filed as functional. As to conditions: Cricetulus griseus. A general note: A counterscreen serves to expose hits that act by an unwanted route or on another target.

A short description of experiment [20]: Counterscreen for antagonists of the orexin 1 receptor (OX1R; HCRTR1): Fluorescence-based cell-based high throughput dose response assay to identify antagonists of the parental CHO cell line. [Related pubchem assays (depositor defined):AID434989, AID435008, AID463079, AID485270, AID492963, AID492964, AID492965, AID493232, AID504699, AID504701]. The format is functional.

For experiment [21], the target named is T1, Orexin/Hypocretin receptor type 1 (Homo sapiens, UniProt O43613). In words: Homogeneous Time Resolved Fluorescence (HTRF)-based cell-based high throughput dose response assay for antagonists of the orexin 1 receptor (OX1R; HCRTR1). [Related pubchem assays (depositor defined):AID434989, AID435008, AID463079, AID485270, AID492963, AID492964, AID492965, AID493232, AID504717, AID504718]. It is filed as functional. (In general: TR-FRET usually uses a lanthanide donor and a delayed reading to cut background.)
T1 sequence (O43613 whole entry): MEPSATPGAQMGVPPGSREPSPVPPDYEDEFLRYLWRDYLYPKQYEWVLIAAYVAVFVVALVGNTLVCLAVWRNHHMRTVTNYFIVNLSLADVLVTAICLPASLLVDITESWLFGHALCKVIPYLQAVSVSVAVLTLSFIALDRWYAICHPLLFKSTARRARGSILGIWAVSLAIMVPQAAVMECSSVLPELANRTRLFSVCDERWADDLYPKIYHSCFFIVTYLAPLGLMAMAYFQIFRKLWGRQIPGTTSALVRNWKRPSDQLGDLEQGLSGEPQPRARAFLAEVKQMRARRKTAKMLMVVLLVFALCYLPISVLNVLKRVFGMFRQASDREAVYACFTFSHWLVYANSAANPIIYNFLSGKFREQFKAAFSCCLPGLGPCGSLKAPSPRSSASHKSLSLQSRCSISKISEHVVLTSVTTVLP

For experiment [22], the target named is T1, Orexin/Hypocretin receptor type 1. In words: Fluorescence-based cell-based high throughput dose response assay for antagonists of the orexin 1 receptor (OX1R; HCRTR1). [Related pubchem assays (depositor defined):AID434989, AID435008, AID463079, AID485270, AID492963, AID492964, AID492965, AID493232, AID504717, AID504718]. The format is functional.
Experiment [23] deals with T2, Orexin receptor type 2 (Homo sapiens, UniProt O43614). In words: Counterscreen assay for antagonists of the orexin 1 receptor (OX1R; HCRTR1): Fluorescence-based cell-based dose response assay for antagonists of the orexin 2 receptor (OX2R; HCRTR2), run by assay provider. It is filed as functional.
T2 sequence (O43614 whole entry): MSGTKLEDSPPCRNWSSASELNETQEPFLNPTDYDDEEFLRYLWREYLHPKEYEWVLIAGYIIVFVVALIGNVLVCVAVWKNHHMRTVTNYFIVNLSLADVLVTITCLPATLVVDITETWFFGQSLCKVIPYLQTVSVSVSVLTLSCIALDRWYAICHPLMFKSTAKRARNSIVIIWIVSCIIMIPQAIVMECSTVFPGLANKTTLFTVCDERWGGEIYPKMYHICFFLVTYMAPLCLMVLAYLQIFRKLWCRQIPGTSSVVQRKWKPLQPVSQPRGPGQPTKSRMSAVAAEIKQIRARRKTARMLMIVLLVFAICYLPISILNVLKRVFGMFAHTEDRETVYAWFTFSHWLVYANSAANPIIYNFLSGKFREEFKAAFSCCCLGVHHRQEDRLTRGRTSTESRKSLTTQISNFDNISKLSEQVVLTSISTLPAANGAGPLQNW
For experiment [24], the target named is T2, Orexin receptor type 2. Description: Counterscreen assay for antagonists of the orexin 1 receptor (OX1R; HCRTR1): Homogeneous Time Resolved Fluorescence (HTRF)-based cell-based dose response assay for antagonists of the orexin 2 receptor (OX2R; HCRTR2), run by assay provider. The format is functional.
Experiment [25] deals with Serine/threonine-protein kinase PLK3 (Homo sapiens, UniProt Q9H4B4). It is filed as functional.
For experiment [26], the target named is RAC-gamma serine/threonine-protein kinase (Homo sapiens, UniProt Q9Y243). It is filed as functional.
Experiment [27] addresses ALK tyrosine kinase receptor (Homo sapiens, UniProt Q9UM73). It is filed as functional.
Experiment [28] has as its target Serine/threonine-protein kinase PLK4 (Homo sapiens, UniProt O00444). The format is functional.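 Note: PLK4 measured as one member of a kinome-wide kinase profiling panel.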
Experiment [29] has as its target Proto-oncogene tyrosine-protein kinase receptor Ret (Homo sapiens, UniProt P07949). It is filed as functional.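 Note: measured within a kinome-wide profiling panel, RET as the panel member.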
Experiment [30] addresses Fibroblast growth factor receptor 1 (Homo sapiens, UniProt P11362). It is filed as functional.
Experiment [31] concerns the target Insulin receptor (Homo sapiens, UniProt P06213). It is filed as functional.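 Note: insulin receptor kinase tested as one member of a kinome-wide kinase panel.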
In experiment [32] the target is Serine/threonine-protein kinase pim-3 (Homo sapiens, UniProt Q86V86). It is filed as functional.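 Note: value obtained as one member of a broad kinase panel profiling effort.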
Experiment [33] concerns the target Non-receptor tyrosine-protein kinase TYK2 (Homo sapiens, UniProt P29597). It is filed as functional.
For experiment [34], the target named is Hepatocyte growth factor receptor (Homo sapiens, UniProt P08581). It is filed as functional.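 Note: kinase panel profiling across the kinome, with MET as the panel member.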
Experiment [35] deals with Receptor-type tyrosine-protein kinase FLT3 (Homo sapiens, UniProt P36888). The format is functional.
In experiment [36] the target is Serine/threonine-protein kinase Chk1 (Homo sapiens, UniProt O14757). The format is functional.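 Note: measured as one member of a kinome-wide kinase profiling panel.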
Experiment [37] deals with Vascular endothelial growth factor receptor 2 (Homo sapiens, UniProt P35968). The format is functional.
For experiment [38], the target named is Protein-tyrosine kinase 6 (Homo sapiens, UniProt Q13882). It is filed as functional.
For experiment [39], the target named is RAC-alpha serine/threonine-protein kinase (Homo sapiens, UniProt P31749). The format is functional.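 Note: AKT1 affinity measured as one member of a kinome-wide kinase profiling panel.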
In experiment [40] the target is Vascular endothelial growth factor receptor 1 (Homo sapiens, UniProt P17948). It is filed as functional.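 Note: measured within a kinome-wide profiling panel, FLT1 as the panel member.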
Experiment [41] concerns the target Serine/threonine-protein kinase PLK1 (Homo sapiens, UniProt P53350). The format is functional.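 Note: PLK1 measured as one member of a kinome-wide profiling panel.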
Experiment [42] concerns the target Macrophage colony-stimulating factor 1 receptor (Homo sapiens, UniProt P07333). It is filed as functional.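 Note: value comes from the Navigating the Kinome screening panel, CSF1R member.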

Chain of Proto-oncogene tyrosine-protein kinase receptor Ret (P07949 whole entry): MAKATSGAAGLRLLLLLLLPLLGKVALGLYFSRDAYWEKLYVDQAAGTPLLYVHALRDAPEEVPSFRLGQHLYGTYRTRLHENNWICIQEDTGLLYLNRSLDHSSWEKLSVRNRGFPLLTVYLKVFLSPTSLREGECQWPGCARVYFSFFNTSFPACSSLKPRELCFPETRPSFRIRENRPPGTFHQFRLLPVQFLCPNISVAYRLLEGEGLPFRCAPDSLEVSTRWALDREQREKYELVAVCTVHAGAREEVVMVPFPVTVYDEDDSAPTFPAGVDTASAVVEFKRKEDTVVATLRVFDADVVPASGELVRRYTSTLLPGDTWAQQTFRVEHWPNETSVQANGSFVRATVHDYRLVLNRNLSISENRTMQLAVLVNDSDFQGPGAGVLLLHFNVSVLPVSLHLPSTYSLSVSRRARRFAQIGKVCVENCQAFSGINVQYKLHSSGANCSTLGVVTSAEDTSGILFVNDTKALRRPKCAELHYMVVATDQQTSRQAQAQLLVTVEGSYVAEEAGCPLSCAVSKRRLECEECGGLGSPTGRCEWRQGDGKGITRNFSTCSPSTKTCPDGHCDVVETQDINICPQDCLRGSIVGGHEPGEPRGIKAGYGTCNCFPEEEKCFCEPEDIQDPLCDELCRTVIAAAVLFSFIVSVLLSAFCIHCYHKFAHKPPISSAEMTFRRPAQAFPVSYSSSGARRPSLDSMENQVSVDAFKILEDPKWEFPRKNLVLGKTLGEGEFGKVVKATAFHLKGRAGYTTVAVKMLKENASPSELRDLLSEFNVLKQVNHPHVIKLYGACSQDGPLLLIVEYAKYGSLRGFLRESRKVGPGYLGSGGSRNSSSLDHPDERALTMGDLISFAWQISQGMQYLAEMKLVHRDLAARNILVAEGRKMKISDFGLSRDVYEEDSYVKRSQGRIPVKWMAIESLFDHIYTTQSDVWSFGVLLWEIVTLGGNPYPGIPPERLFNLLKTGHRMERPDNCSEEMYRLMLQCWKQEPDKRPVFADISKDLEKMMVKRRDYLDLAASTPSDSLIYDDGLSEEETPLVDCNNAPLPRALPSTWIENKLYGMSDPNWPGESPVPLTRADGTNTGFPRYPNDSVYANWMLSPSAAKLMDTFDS
Chain of Serine/threonine-protein kinase PLK1 (P53350 whole entry): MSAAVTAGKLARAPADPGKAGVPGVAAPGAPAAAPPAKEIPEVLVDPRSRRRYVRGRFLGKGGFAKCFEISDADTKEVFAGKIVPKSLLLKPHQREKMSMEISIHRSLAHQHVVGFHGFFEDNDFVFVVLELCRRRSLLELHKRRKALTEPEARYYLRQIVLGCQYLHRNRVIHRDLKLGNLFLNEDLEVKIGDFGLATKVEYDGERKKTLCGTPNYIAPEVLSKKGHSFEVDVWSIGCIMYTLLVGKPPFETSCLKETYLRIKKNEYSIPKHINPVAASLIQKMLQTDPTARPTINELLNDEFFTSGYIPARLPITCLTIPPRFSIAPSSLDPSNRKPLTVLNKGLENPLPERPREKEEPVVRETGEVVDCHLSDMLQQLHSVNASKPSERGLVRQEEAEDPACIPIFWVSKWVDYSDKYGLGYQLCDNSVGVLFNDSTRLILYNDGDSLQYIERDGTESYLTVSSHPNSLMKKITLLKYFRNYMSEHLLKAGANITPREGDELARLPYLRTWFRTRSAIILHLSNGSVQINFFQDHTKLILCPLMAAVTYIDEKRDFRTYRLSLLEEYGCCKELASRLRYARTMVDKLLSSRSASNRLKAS
Chain of Glycogen synthase kinase-3 beta (P49841 whole entry): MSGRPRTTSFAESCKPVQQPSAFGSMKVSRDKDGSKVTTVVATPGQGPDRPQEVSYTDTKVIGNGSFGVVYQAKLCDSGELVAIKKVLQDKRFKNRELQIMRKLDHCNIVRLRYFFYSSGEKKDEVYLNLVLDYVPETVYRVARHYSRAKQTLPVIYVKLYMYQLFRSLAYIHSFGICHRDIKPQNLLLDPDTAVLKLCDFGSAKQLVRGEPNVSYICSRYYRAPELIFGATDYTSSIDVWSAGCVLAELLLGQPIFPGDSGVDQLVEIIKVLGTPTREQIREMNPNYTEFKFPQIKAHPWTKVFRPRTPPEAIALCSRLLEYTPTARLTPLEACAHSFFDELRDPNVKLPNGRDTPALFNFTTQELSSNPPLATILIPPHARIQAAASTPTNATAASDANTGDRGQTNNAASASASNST

As a reminder, the AC50 is the midpoint of the concentration-response curve, whichever way the signal moves. Consider `CC(C)Sc1nnc([C@H](Cc2c[nH]c3ccccc23)NC(=O)OC(C)(C)C)o1`, for which the AC50 in experiment [1] is 19.5 µM (active).
Broadly, the Ki is the equilibrium dissociation constant of an inhibitor or competing ligand from its target. Take `CC(C)n1cnc2c(NCc3ccccc3)nc(NCCO)nc21`: the Ki in experiment [2] was 6.31 µM (active); in [3], 2.51 µM (active); in [4], 2 µM (active); in [5], 2.51 µM (active); in experiment [6], 3.16 µM (active).
Turning to `c1ccc2c(c1)[nH]c1cnccc12` [NORHARMANE], the AC50 in experiment [7] was 8.75 µM (active). Also, the Ki in [8] was 6.31 µM (active); in experiment [9], 15.8 µM (active); in [10], 7.94 µM (active).
Regarding `Cc1sc2[nH]c(=O)n3nc(-c4ccncc4)nc3c2c1C`, the Ki in [11] was > 7.94 µM (inactive); in experiment [8], 0.794 µM (active); in experiment [12], 20 nM (active); in [13] it was 2 µM (active); in [14] it was > 10 µM (inactive); in experiment [15], > 10 µM (inactive). For the same compound, the Ki in [16] was 631 nM (active); in [17] it was > 7.94 µM (inactive); in experiment [5], 1.26 µM (active); in experiment [18] it was 5.01 µM (active).
In general, IC50 refers to the concentration needed to halve the response being measured. Regarding `Cc1ccc(NC2=NC(=O)/C(=C/c3cccn3C)S2)cc1C`, the IC50 in [19] is > 66.2 µM (inactive); in [20], > 49.7 µM (inactive); in [21], 2.2 µM (active); in experiment [22], 2.24 µM (active); in experiment [23], > 88.8 µM (inactive); in experiment [24], > 50 µM (inactive).
With `Nc1nnc2ccc(-c3ccccc3)cn12`, the Ki in experiment [25] was > 79.4 µM (inactive); in experiment [26], > 100 µM (inactive); in experiment [27], 12.6 µM (active); in experiment [28], > 39.8 µM (inactive); in [29], 10 µM (active); in experiment [8], 10 µM (active). In addition, the inhibitory constant (Ki) was 10 µM (active) in experiment [30]; > 50.1 µM (inactive) in [31]; 12.6 µM (active) in experiment [32]; > 20 µM (inactive) in experiment [33]; > 31.6 µM (inactive) in [34]; 5.01 µM (active) in experiment [35]. Further, the Ki was > 79.4 µM (inactive) in [36]; 15.8 µM (active) in [37]; > 25.1 µM (inactive) in experiment [38]; > 79.4 µM (inactive) in experiment [39]; 2 µM (active) in [40]; > 79.4 µM (inactive) in [41]. Besides, in experiment [42], the Ki was > 25.1 µM (inactive).

The values are drawn from ChEMBL document CHEMBL1201862, “PubChem BioAssay data set” (2004).
